The source of these data is patent publication US8642611B2, “Alkynylpyrimidines and salts thereof, pharmaceutical compositions comprising same, methods of preparing same and uses of same” (Bayer Intellectual Property GmbH, priority 2007, dated 2014).

One test concerns the target T1, CDK2/CycE (Homo sapiens, UniProt P24941).
T1 construct: GST; purchased ProQinase GmbH (Freiburg, Germany); host or cells: insect cells (Sf9)
Description: CDK2/Cyclin E Kinase Assay. The class given is biochemical. Conditions: CDK2/CycE HTRF, 10 μM ATP; read-out: CDK2 activity (assay 6). From the text: Assay 6: CDK2/Cyclin E Kinase Assay
CDK2/CyclinE—inhibitory activity of compounds of the present invention was quantified employing the CDK2/CycE HTRF assay as described in the following paragraphs.
Recombinant fusion proteins of GST and human CDK2 and of GST and human CycE, expressed in insect cells (Sf9) and purified by Glutathion-Sepharose affinity chromatography, were purchase from ProQinase GmbH (Freiburg, Germany). As substrate for the kinase reaction biotinylated peptide biotin-Ttds-YISPLKSPYKISEG (C-terminus in amid form) was used which can be purchased e.g. form the company JERINI peptide technologies (Berlin, Germany).
CDK2/CycE was incubated for 60 min at 22° C. in the presence of different concentrations of test compounds in 5 μl assay buffer [50 mM Tris/HCl pH 8.0, 10 mM MgCl2, 1.0 mM dithiothreitol, 0.1 mM sodium ortho-vanadate, 10 μM adenosine-tri-phosphate (ATP), 0.75 μM substrate, 0.01% (v/v) Nonidet-P40 (Sigma), 1% (v/v) dimethylsulfoxide]. The concentration of CDK2/CycE was adjusted depending of the activity of the enzyme lot and was chosen appropriate to have the assay in the linear range, typical concentrations were in the range of 1 ng/ml. The reaction was stopped by the addition of 5 μl of a solution of HTRF detection reagents (0.2 μM streptavidine-XLent and 3.4 nM Phospho-(Ser) CDKs Substrate Antibody [product #2324B, Cell Signaling Technology, Danvers, Mass., USA} and 4 nM Prot-A-EuK [Protein A labeled with Europium Cryptate from Cis biointernational, France, product no. 61PRAKLB]) in an aqueous EDTA-solution (100 mM EDTA, 800 mM KF, 0.2% (w/v) bovine serum albumin in 100 mM HEPES/NaOH pH 7.0).
The resulting mixture was incubated 1 h at 22° C. to allow the formation of complex between the phosphorylated biotinylated peptide and the detection reagents. Subsequently the amount of phosphorylated substrate was evaluated by measurement of the resonance energy transfer from the Prot-A-EuK to the streptavidine-XLent. Therefore, the fluorescence emissions at 620 nm and 665 nm after excitation at 350 nm was measured in a HTRF reader, e.g. a Rubystar (BMG Labtechnologies, Offenburg, Germany) or a Viewlux (Perkin-Elmer). The ratio of the emissions at 665 nm and at […] was taken as the measure for the amount of phosphorylated substrate. The data were normalised (enzyme reaction without inhibitor=0% inhibition, all other assay components but no enzyme=100% inhibition) and IC50 values were calculated by a 4 parameter fit using an inhouse software.

The test system of a further test is MVECs. Description: VEGF-Stimulated Endothelial Cell Proliferation Assay. The class given is cell-based. Conditions: 72 h, 3 days, Alamar Blue, read-out: EC proliferation (assay 5). The procedure:
Assay 5: VEGF-Stimulated Endothelial Cell Proliferation Assay
MVECs are plated to collagen coated 48 well plates at a density of 30 000 cells per well in Earles's Medium M199 (complete with serum). After 4 h the medium is exchanged for medium containing 2% human serum without growth factors (200 μl) and cells are maintained overnight at low serum conditions. The other day the medium is exchanged for the same low serum medium containing in addition test compounds or vehicle in the appropriate concentrations using appropriate controls is exchanged. Five minutes later low serum medium containing 40 ng/ml VEGF is added (200 μl). Cells are cultured for 3 days before mixing with Alamar Blue® (dilution factor of 1: 20) and incubating it for 2 h at 37° C. Measurement of fluorescence intensity is done with the following filters: 528/25 Excitation, 590/35 Emission for the determination of the IC50 concentrations.
Culture Medium Composition
Earle's Medium 199 with stable Glutamine (PAA)+5 ml PenStrep (100×; 10000 Units/10 mg/ml) (PAA)+5 ml Non Essential Amino Acids (100×; without L-Glutamine) (PAA)+5 ml Sodium Pyruvat (100 mM) (PAA)+50 ml FCS (PAA)+50 ml HS+1 ml ECGS in Dulbecco's PBS without Ca2++Mg2+(5 mg/ml) (Sigma)+1 ml Heparin (2500 Units/ml)+2.5 ml Biotect-Protection medium (Biochrom AG)=complete Earle's M 199 medium
Earle's Medium 199 (PAA) with stable Glutamine+5 ml PenStrep (100×; 10000 Units/10 mg/ml) (PAA)+5 ml Non Essential Amino Acids (100×; without L-Glutamine) (PAA)+5 ml Sodium Pyruvat (100 mM) (PAA), 2% HS+2.5 ml Biotect- Protection medium (Biochrom AG)

Each structure is given as a SMILES string. Where only a bound is given, the exact number is not on record here.

As to `COc1ccc(C#Cc2cnc(Nc3ccc(S(C)(=N)=O)cc3)nc2N[C@H](C)CO)cc1` (mixture of isomers) [Example 1.1, (RS)—S-(4-[4-((R)-2-Hydroxy-1-methyl-ethylamino)-5-(4-methoxy-phenylethynyl)-pyrimidin-2-ylamino]-phenyl)-S-methylsulfoximide], the IC50 on CDK2/CycE was above 10000 nM; in the test on MVECs, below 500 nM. On the same counts, the results for `C[C@H](CO)Nc1nc(Nc2ccc(S(C)(=N)=O)cc2)ncc1C#Cc1ccccc1` (mixture of isomers) [Example 1.2, (RS)-S-(4-[4-((R)-2-Hydroxy-1-methyl-ethylamino)-5-(phenylethynyl)-pyrimidin-2-ylamino]-phenyl)-S-methylsulfoximide] are above 10000 nM and below 500 nM. Turning to `CCc1ccc(C#Cc2cnc(Nc3ccc(S(C)(=N)=O)cc3)nc2N[C@H](C)CO)cc1` (mixture of isomers) [Example 1.8, (RS)-S-(4-[5-(4-Ethyl-phenylethynyl)-4-((R)-2-hydroxy-1-methyl-ethylamino)-pyrimidin-2-ylamino]-phenyl)-S-methylsulfoximide], on CDK2/CycE, the IC50 was above 10000 nM. On to `C[C@H](CO)Nc1nc(Nc2ccc(S(C)(=N)=O)cc2)ncc1C#Cc1ccc(F)cc1` (mixture of isomers) [Example 1.9, (RS)-S-(4-[5-(4-Fluoro-phenyl-ethynyl)-4-((R)-2-hydroxy-1-methyl-ethylamino)-pyrimidin-2-ylamino]-phenyl)-S-methylsulfoximide], for which the IC50 on CDK2/CycE was above 10000 nM; in the test with MVECs, below 500 nM. Take `Cc1cc(C#Cc2cnc(Nc3ccc(S(C)(=N)=O)cc3)nc2N[C@H](C)CO)ccc1F` (mixture of isomers) [Example 1.13, (RS)-S-(4-[5-(4-Fluoro-3-methyl-phenyl-ethynyl)-4-((R)-2-hydroxy-1-methyl-ethylamino)-pyrimidin-2-ylamino]-phenyl)-S-methylsulfoximide]: the IC50 at CDK2/CycE was above 10000 nM; with MVECs, below 500 nM.

Take `CC(C)NC(=O)N=S(C)(=O)c1cccc(Nc2ncc(C#Cc3cccc(O)c3)c(N[C@H](C)CO)n2)c1` (mixture of isomers) [Example 1.15, (RS)-S-(3-[4-((R)-2-Hydroxy-1-methyl-ethylamino)-5-(3-hydroxy-phenylethynyl)-pyrimidin-2-ylamino]-phenyl)-N-(isopropylcarbamoyl)-S-methylsulfoximide]: on CDK2/CycE, the IC50 is 1000 to 10000 nM.

For `COc1ccc(C#Cc2cnc(Nc3cccc(S(C)(=N)=O)c3)nc2N[C@H](C)CO)cc1` (mixture of isomers) [Example 1.17, (RS)-S-(3-[4-((R)-2-Hydroxy-1-methyl-ethylamino)-5-(4-methoxy-phenylethynyl)-pyrimidin-2-ylamino]-phenyl)-S-methylsulfoximide], on CDK2/CycE, the IC50 is above 10000 nM. In the case of `C[C@H](CO)Nc1nc(Nc2cccc(S(C)(=N)=O)c2)ncc1C#Cc1cccc(O)c1` (mixture of isomers) [Example 1.18, (RS)-S-(3-[4-((R)-2-Hydroxy-1-methyl-ethylamino)-5-(3-hydroxy-phenylethynyl)-pyrimidin-2-ylamino]-phenyl)-S-methylsulfoximide], the IC50 was 1000 to 10000 nM on CDK2/CycE and below 500 nM in the test on MVECs. Regarding `Cc1ccccc1C#Cc1cnc(Nc2cccc(S(C)(=N)=O)c2)nc1N[C@H](C)CO` (mixture of isomers) [Example 1.19, (RS)-S-(3-[4-((R)-2-Hydroxy-1-methyl-ethylamino)-5-(2-methyl-phenylethynyl)-pyrimidin-2-ylamino]-phenyl)-S-methylsulfoximide], the IC50 in the test with MVECs was below 500 nM.

`Cc1cc(C#Cc2cnc(Nc3cccc(S(C)(=N)=O)c3)nc2N[C@H](C)CO)ccc1F` (mixture of isomers) [Example 1.20, (RS)-S-(3-[5-(4-Fluoro-3-methyl-phenyl-ethynyl)-4-((R)-2-hydroxy-1-methyl-ethylamino)-pyrimidin-2-ylamino]-phenyl)-S-methylsulfoximide]: the IC50 in the test with MVECs was below 500 nM. Regarding `Cc1ccccc1C#Cc1cnc(Nc2ccc(S(C)(=N)=O)cc2)nc1N[C@H](C)CO` (mixture of isomers) [Example 1.3], the IC50 on CDK2/CycE is 1000 to 10000 nM; in the test with MVECs it was below 500 nM. On the same counts, the results for `Cc1ccc(C#Cc2cnc(Nc3ccc(S(C)(=N)=O)cc3)nc2N[C@H](C)CO)cc1` (mixture of isomers) [Example 1.5] are 1000 to 10000 nM and below 500 nM. `CCNc1nc(Nc2ccc(S(C)(=N)=O)cc2)ncc1C#Cc1ccc(F)c(C)c1` (racemic) [Example 1.24, (RS)-S-(4-[4-ethylamino-5-(4-fluoro-3-methyl-phenyl-ethynyl)-pyrimidin-2-ylamino]-phenyl)-S-methylsulfoximide]: the IC50 on CDK2/CycE is above 10000 nM. The same measure, in the same setting: the figure for `CCNc1nc(Nc2ccc(S(C)(=N)=O)cc2)ncc1C#Cc1ccc(OC)cc1` (racemic) [Example 1.26, (RS)-S-(4-[4-ethylamino-5-(4-methoxy-phenyl-ethynyl)-pyrimidin-2-ylamino]-phenyl)-S-methylsulfoximide] is above 10000 nM. Regarding `CCOC(=O)N=S(C)(=O)c1ccc(Nc2ncc(C#Cc3cccc(O)c3)c(N[C@H](C)CO)n2)cc1` (mixture of isomers) [Example 2.7], the IC50 is 1000 to 10000 nM on CDK2/CycE and below 500 nM in the test with MVECs. `CS(=N)(=O)c1cccc(Nc2ncc(C#Cc3cccc(O)c3)cn2)c1` (racemic) [Example 4.2, (RS)—S-(3-[5-(3-hydroxy-phenylethynyl)-pyrimidin-2-ylamino]-phenyl)-S-methylsulfoximide]: the IC50 at CDK2/CycE is above 10000 nM.
